Key:
H929 = experiment: Tumor cell growth inhibition, CellTiter-Glo viability, H929; format: cell-based; conditions: H929, Bone Marrow; 72 hours
Experimental: (§1) To support the potential of compounds of the invention as antitumor agents, their ability to inhibit tumor cell growth across a range of cancer types was evaluated, compared to cisplatin (See FIGS. 3A-3C and FIGS. 4A-4C). Cancer cells were seeded at optimized density on 384-well plates in appropriate media for 24 hours in triplicate for each test article. Titrated compounds or cisplatin were added to cultures for 72 hours with 3-fold dilutions totaling 9 concentrations starting from 30 uM for compounds or 50 uM for cisplatin (see FIGS. 3A-3C). Cell viability was then determined by CellTiter-Glo® Luminescent Cell Viability Assay from Promega, Madison Wisconsin. A dose response curve (see FIGS. 4A-4C) was fitted from luminance activity and the IC50 for each test article was calculated using a four-parameter variable slope in GraphPad Prism version 8.0.0 for Windows, GraphPad Software, San Diego, California USA, www.graphpad.com. Conjugates were more cytotoxic to cancer cells compared to cisplatin alone, some were particularly noteworthy in colon cancer (HCT-15), prostate cancer (PC-3), and breast cancer (MCF-7) cells compared to cisplatin (see, also, Table 1, below).

MCF-7 = experiment: Tumor cell growth inhibition, CellTiter-Glo viability, MCF-7; format: cell-based; conditions: MCF-7, Breast; 72 hours
Experimental: as §1

MDA-MB-231 = experiment: Tumor cell growth inhibition, CellTiter-Glo viability, MDA-MB-231; format: cell-based; conditions: MDA-MB-231, Breast; 72 hours
Experimental: as §1

Hela = experiment: Tumor cell growth inhibition, CellTiter-Glo viability, Hela; format: cell-based; conditions: Cervical, 72 hours
Experimental: as §1

HCT-15 = experiment: Tumor cell growth inhibition, CellTiter-Glo viability, HCT-15; format: cell-based; conditions: HCT-15, Colon; 72 hours
Experimental: as §1

Huh-7 = experiment: Tumor cell growth inhibition, CellTiter-Glo viability, Huh-7; format: cell-based; conditions: Huh-7, Liver; 72 hours
Experimental: as §1

HepG2-PM4 = experiment: Tumor cell growth inhibition, CellTiter-Glo viability, HepG2-PM4; format: cell-based; conditions: HepG2-PM4, Liver; 72 hours
Experimental: as §1

LNCap = experiment: Tumor cell growth inhibition, CellTiter-Glo viability, LNCap; format: cell-based; conditions: Prostate, 72 hours
Experimental: as §1

PC-3 = experiment: Tumor cell growth inhibition, CellTiter-Glo viability, PC-3; format: cell-based; conditions: PC-3, Prostate; 72 hours
Experimental: as §1

[1] = Chemoprotection against cisplatin-induced myelotoxicity; conditions: preliminary results
Description: Accordingly, by combining PTBA or its analogs with cisplatin through chemical conjugation, not only will the conjugate drug have the potential to act as a synergistic anti-cancer drug combination in its own right, but PTBA and its analogs will also provide for chemoprotection against nephrotoxicity during cancer therapy. […] By reducing adverse side effects, this chemoprotective characteristic of PTBA and its analogs, co-administered as a chemical conjugate with cisplatin, has the potential to increase drug tolerability, to permit uninterrupted treatment schedules, and to eliminate the need to reduce drug doses.

[2] = test system: nephrotoxin-induced and ischemia/reperfusion-induced kidney injury; conditions: rodents; cited from earlier work
HDAC8 = HDAC8 (Homo sapiens, UniProt Q9BY41); conditions: cited from earlier work
Chain of HDAC8 (Q9BY41 whole entry): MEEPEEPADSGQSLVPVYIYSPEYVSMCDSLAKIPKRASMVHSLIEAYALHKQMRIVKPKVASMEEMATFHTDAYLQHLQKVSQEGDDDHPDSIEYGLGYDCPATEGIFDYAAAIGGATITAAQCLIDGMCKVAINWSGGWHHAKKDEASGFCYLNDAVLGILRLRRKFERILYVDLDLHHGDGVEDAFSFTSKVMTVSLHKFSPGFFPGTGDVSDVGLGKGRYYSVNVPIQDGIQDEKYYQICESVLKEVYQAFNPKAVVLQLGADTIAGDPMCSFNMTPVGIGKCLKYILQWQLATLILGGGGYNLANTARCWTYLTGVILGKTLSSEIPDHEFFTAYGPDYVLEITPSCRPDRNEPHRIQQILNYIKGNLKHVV

Q: Which results are given for N.N.[Cl][Pt][Cl] [Cisplatin, cisdiamminedichloroplatinum [II]]?
A: IC50 (H929): 2.35 µM; IC50 (MCF-7): 2.25 µM; IC50 (MDA-MB-231): 2.85 µM; IC50 (Hela): 12.3 µM; IC50 (HCT-15): 24.3 µM; IC50 (Huh-7): 6.47 µM; IC50 (HepG2-PM4): 14 µM; IC50 (LNCap): 10.9 µM; IC50 (PC-3): 22 µM

Q: What does the source list for O=C(O)CCCSc1ccccc1 [PTBA, 4-(phenylthio)butanoic acid]?
A: Chemoprotective effect against cisplatin-induced myelotoxicity [1]: chemoprotective effect; Recovery of kidney function after AKI [2]: significantly accelerate recovery of kidney function

Q: For O=C(CCCCCCC(=O)Nc1ccccc1)NO [Vorinostat, suberoylanilide hydroxamic acid], which “Inhibition of HDAC8 (potency range)” value (HDAC8) is on record?
A: micromolar range

Q: For Trichostatin A, which “Concentration that completely inhibits HDAC8 activity” value (HDAC8) is on record?
A: 5 µM
